Like-named read-outs stand apart in the source and are kept apart here.
Key:
[1] = system: N. fowleri ATCC 30215 trophozoites; experiment: In vitro activity against trophozoite stage (alamarBlue), strain ATCC 30215; assay type: cell-based; conditions: Naegleria fowleri, ATCC30215, 48 h incubation
[2] = In vitro cytotoxicity against murine macrophages (alamarBlue); assay type: cell-based; conditions: mouse
Description: (§1) For cytotoxicity assays, a murine cell line macrophage J774A.1 (ATCC TIB-67) was used, maintained in the Dulbecco’s modified Eagle’s medium (DMEM, w/v) supplemented with 10% (v/v) FBS and 10 μg/mL gentamicin (Sigma-Aldrich, Madrid, Spain), incubated at 37 °C in a 5% CO2 atmosphere.
(§2) In this assay, a murine macrophage cell line J774A.1 (ATCC TIB-67) was used. Serial dilutions of the compounds were added and, subsequently, the alamarBlue reagent as described in previous studies[51] was also placed. Once the plates were read on the EnSpire Multimode Plate Reader (PerkinElmer, Madrid, Spain), the data were analyzed to obtain the cytotoxic concentration 50 (CC50). This CC50, together with the activity, was used to obtain the selectivity index for N. fowleri.

[3] = system: N. fowleri ATCC 30808 trophozoites; experiment: In vitro activity against trophozoite stage (alamarBlue), strain ATCC 30808; assay type: cell-based, Naegleria fowleri; conditions: for S.I. ATCC 30808 (selectivity index CC50/IC50): CC50 murine macrophages / IC50 N. fowleri ATCC 30808; for IC50 / IC90: Naegleria fowleri, ATCC30808, trophozoites, alamarBlue, 48 h incubation
[4] = system: N. fowleri ATCC 30808 trophozoites; experiment: ATP levels (CellTiter-Glo Luminescent Cell Viability Assay); assay type: cell-based, Naegleria fowleri; conditions: 24 h incubation with IC90
Description: To evaluate the mechanisms of action of the compounds at the cellular level, a series of commercial kits were used according to the manufacturer's instructions. To carry out the assays, the N. fowleri ATCC 30808 culture was previously incubated with the IC90 of the compounds evaluated for 24 h. Nontreated N. fowleri trophozoites were used as a negative control. […] Five images were processed each time at 40x and 100x objective lenses. In order to measure the amount of ATP produced, Cell […]-GLO Luminescent Cell Viability assay (Promega Biotech Ibérica, Madrid, Spain) was used. With this kit, it is possible to compare the ATP production of treated cells to that of nontreated (negative control). ATP levels were evaluated by luminescent analysis using an EnSpire Multimode Plate Reader (Perkin Elmer, Madrid, Spain) following incubation with IC90 of selected compounds at 37 °C for 24 h.

[5] = system: N. fowleri ATCC 30808 trophozoites; experiment: Mitochondrial membrane potential disruption (JC-1); assay type: cell-based, Naegleria fowleri; conditions: 24 h incubation with IC90
Description: (§3) To evaluate the mechanisms of action of the compounds at the cellular level, a series of commercial kits were used according to the manufacturer’s instructions. To carry out the assays, the N. fowleri ATCC 30808 culture was previously incubated with the IC90 of the compounds evaluated for 24 h. Nontreated N. fowleri trophozoites were used as a negative control. […] Five images were processed each time at 40x and 100x objective lenses.
To determine the potential of the mitochondrial membrane was use the dye JC-1 (1,1′,3,3′-tetraethyl-5,5′,6,6′-tetrachloroimidacarbocyanine iodide) (Cayman Chemicals Vitro SA, Madrid, España). Once the amoebae were incubated for 24 h with the IC90 of the active compounds, 10 μL of JC-1 was added. […] The reagent fluoresces at two different wavelengths depending on the membrane potential. Under normal conditions, the monomers bind together to form J-aggregates (dimers) emitting red fluorescence at 595 nm.

[6] = system: N. fowleri ATCC 30808 cysts; experiment: In vitro activity against cyst stage (alamarBlue); assay type: cell-based; conditions: Naegleria fowleri, ATCC30808, read 24 h after adding reagent, read-out: Cysticidal activity, N. fowleri ATCC 30808 IC50
[7] = system: murine macrophage cell line J774A.1 (ATCC TIB-67); experiment: In vitro cytotoxicity against murine macrophages (alamarBlue); assay type: cell-based; conditions: mouse
Description: as §1, §2

[8] = system: N. fowleri ATCC 30808 trophozoites; assay type: cell-based, Naegleria fowleri; conditions: not told
Description: as §3
The permeability of the plasma membrane can be analyzed using a green fluorescent dye called SYTOX Green (Life Technologies, Madrid, Spain). After the amoebae are incubated for 24 h with the IC90 of cyanomethyl vinyl ethers, SYTOX Green was added to a final concentration of 1 μM and after 15 min of incubation, cells were observed using Discover Echo Inc. Revolution Microscope (Discover Echo, San Diego, CA). The plasma membrane of the damaged cells will become permeable, giving the reagent the ability to enter through it. When inside the cell, it binds to the DNA and increases its fluorescence more than 500-fold, emitting green fluorescence at 523 nm.

[9] = system: N. fowleri ATCC 30808 trophozoites; experiment: Oxidative stress / ROS detection (CellROX Deep Red); assay type: cell-based, Naegleria fowleri; conditions: 24 h incubation with IC90
Description: To evaluate the mechanisms of action of the compounds at the cellular level, a series of commercial kits were used according to the manufacturer’s instructions. To carry out the assays, the N. fowleri ATCC 30808 culture was previously incubated with the IC90 of the compounds evaluated for 24 h. Nontreated N. fowleri trophozoites were used as a negative control. […] Five images were processed each time at 40x and 100x objective lenses. In this assay, the oxidative stress produced in the pathogen by the generation of oxygen free radicals is evaluated. The CellROX Deep Red kit (Invitrogen, Thermo Fisher Scientific, Madrid, Spain) was used in amoebae incubated for 24 h with the IC90 of the compounds to be tested. The reagent was used at a final concentration of 5 μM and incubated for 30 min. After this time, the action of the reagent was observed using the Discover Echo Inc. Revolution Microscope (Discover Echo, San Diego, CA). As a result of the overproduction of reactive oxygen species (ROS), this dye has the ability to penetrate the cells and emit red fluorescence at a wavelength of ∼644/665 nm.

[10] = system: N. fowleri ATCC 30808 trophozoites; experiment: Chromatin condensation assay (Hoechst 33342/PI double stain); assay type: cell-based, Naegleria fowleri; conditions: 24 h incubation with IC90
Description: as §3
A double-stain apoptosis detection kit (Hoechst 33342/PI) (Life Technologies, Madrid, Spain) was used to evaluate DNA condensation based on the fluorescent detection for chromatin compaction in apoptotic cells, and the assay offers a rapid and convenient apoptosis detection. As soon as the amoebae have been incubated for 24 h with the active compound’s IC90, Hoechst and propidium iodide (PI) are added at a final concentration of 5 and 1 μg/mL, respectively. Fluorescence should be observed after 15 min of incubation in the dark. In apoptotic cells, Hoechst 33342, a dye for blue fluorescence, stains the condensed chromatin more intensely than that in normal cells. PI emits red fluorescence (maximum excitation and emission wavelengths when bound to DNA of 535 and 617 nm, respectively), which can only be emitted through dead cells.

[11] = system: N. fowleri ATCC 30808 trophozoites; experiment: Actin filament depolymerization (phalloidin-TRITC); assay type: cell-based, Naegleria fowleri; conditions: 24 h incubation with IC90, Z-stack imaging
Description: To evaluate the mechanisms of action of the compounds at the cellular level, a series of commercial kits were used according to the manufacturer’s instructions. To carry out the assays, the N. fowleri ATCC 30808 culture was previously incubated with the IC90 of the compounds evaluated for 24 h. Nontreated N. fowleri trophozoites were used as a negative control. […] Five images were processed each time at 40x and 100x objective lenses. The disassembly of cytoskeleton in treated amoebae can be analyzed by the red fluorescence emitted by phalloidin-TRITC when it binds to actin filaments. On the other hand, DAPI reagent was used which, in turn, binds to DNA and emits blue fluorescence, as already described in Acanthamoeba genus.[52] In this assay, amoebae were incubated with the IC90 of compounds. A 24-h incubation period was followed by the fixation of the cells with formaldehyde on a coverslip and the addition of 0.1% Triton before the addition of phalloidin-tetramethylrhodamine B isothiocyanate (phalloidin-TRITC; Sigma-Aldrich, Madrid, Spain) for another 30-min period. Finally, after incubation, the sample was washed with PBS. Cells were examined by Z-stack with a 100x objective of the EVOS FL Cell Imaging System AMF4300 (Life Technologies, Madrid, Spain).

[12] = J774A.1 macrophage cell line (ATCC TIB-67), alamarBlue, read-out: Murine macrophages J774.A1 CC50
[13] = Murine macrophages J774.A1 CC50

With `C[C@@H]1[C@H](O)[C@@H](C)/C=C/C=C/C=C/C=C/C=C/C=C/C=C/[C@H](O[C@@H]2O[C@H](C)[C@@H](O)[C@H](N)[C@@H]2O)C[C@@H]2O[C@](O)(C[C@@H](O)C[C@@H](O)[C@H](O)CC[C@@H](O)C[C@@H](O)CC(=O)O[C@H]1C)C[C@H](O)[C@H]2C(=O)O` [Amphotericin B, reference compound] the IC50 [1] was 0.16 ± 0.02 µM, the CC50 [2, 12] was no less than 200 µM and the “S.I. ATCC 30808 (selectivity index CC50/IC50)” value [3] was no less than 1652.89. For the same compound, the IC50 [3] was 0.12 ± 0.03 µM and the IC90 [3] was 0.35 ± 0.02 µM.

With `CCCCCCCCCCCCCCCCOP(=O)([O-])OCC[N+](C)(C)C` [Miltefosine, miltefosine, reference compound] the IC50 [1] was 81.6 ± 7.23 µM, the CC50 [2, 12] was 128 ± 8.85 µM and the “S.I. ATCC 30808 (selectivity index CC50/IC50)” value [3] was 3.30. For the same compound, the IC50 [3] was 38.7 ± 4.23 µM and the IC90 [3] was 89.5 ± 17.4 µM.

For `COC(=O)/C=C/OC(C#N)c1ccccc1` (centres unmarked) [QOET-51], the IC50 [1] was 68.5 ± 2.16 µM, the CC50 [2, 13] was 709 ± 67.1 µM and the “S.I. ATCC 30808 (selectivity index CC50/IC50)” value [3] was 14.23. It also gave an IC50 [3] of 49.9 ± 3.04 µM and an IC90 [3] of 173 ± 17.2 µM.

With `COC(=O)/C=C/OC(C#N)c1ccc(C)cc1` (centres unmarked) [QOET-59] the IC50 [1] was 44.5 ± 0.48 µM, the “Decrease in ATP levels compared to the negative control” value (shortened to “Decrease in ATP levels”) [4] was 98.49% and the “Mitochondrial membrane potential (JC-1 fluorescence)” value (from here on “Mitochondrial membrane potential”) [5] was “disruption in the mitochondrial membrane potential”. The IC50 [6] was 93.6 ± 17.5 µM, the CC50 [2, 13] was greater than 800 µM and the CC50 [7] was greater than 865 µM. The “Plasma membrane permeability (SYTOX Green fluorescence)” value (“Plasma membrane permeability” for short) [8] was “show green fluorescence”, the “Intracellular ROS generation (CellROX Deep Red fluorescence)” value (shortened to “Intracellular ROS generation”) [9] was “increase of the intracellular ROS generation” and the “Chromatin condensation (Hoechst 33342 blue fluorescence)” value (from here on “Chromatin condensation”) [10] was “condensation was observed”. The “S.I. ATCC 30808 (selectivity index CC50/IC50)” value [3] was greater than 20, the IC50 [3] was 42.3 ± 6.44 µM and the IC90 [3] was 77.2 ± 11.8 µM. For the same compound, the “Actin filaments (phalloidin-TRITC fluorescence)” value (shortened to “Actin filaments”) [11] was “bright red fluorescence region related to actin depolymerization”.

With `COC(=O)/C=C\OC(C#N)c1ccc(C(F)(F)F)cc1` (centres unmarked) [QOET-64] the IC50 [1] was 48.9 ± 0.81 µM, the CC50 [2, 13] was greater than 351 µM and the “S.I. ATCC 30808 (selectivity index CC50/IC50)” value [3] was greater than 9. The IC50 [3] was 38.8 ± 2.13 µM and the IC90 [3] was 83.4 ± 9.47 µM.

For `COC(=O)/C=C/OC(C#N)c1cc(OC)c(OC)c(OC)c1` (centres unmarked) [QOET-67], the IC50 [1] was 121 ± 20.7 µM, the CC50 [2, 13] was greater than 325 µM and the “S.I. ATCC 30808 (selectivity index CC50/IC50)” value [3] was greater than 6. The IC50 [3] was 48.3 ± 10.5 µM and the IC90 [3] was 154 ± 15.3 µM.

In the case of `COC(=O)/C=C\OC(C#N)c1ccc(C)c(C)c1` (centres unmarked) [QOET-72], the IC50 [1] is reported as 50.1 ± 4.9 µM, the “Decrease in ATP levels” value [4] is reported as 90.25% and the “Mitochondrial membrane potential” value [5] is reported as “disruption in the mitochondrial membrane potential”. The IC50 [6] was 130 ± 22.8 µM, the CC50 [2, 13] was greater than 408 µM and the “Plasma membrane permeability” value [8] was “show green fluorescence”. The “Intracellular ROS generation” value [9] was “increase of the intracellular ROS generation”, the “Chromatin condensation” value [10] was “condensation was observed” and the “S.I. ATCC 30808 (selectivity index CC50/IC50)” value [3] was greater than 7. The IC50 [3] was 47.7 ± 4.1 µM, the IC90 [3] was 185 ± 7.05 µM and the “Actin filaments” value [11] was “bright red fluorescence region related to actin depolymerization”.

In the case of `COC(=O)/C=C/OC(C#N)c1ccccc1C` (centres unmarked) [QOET-77], the IC50 [1] is reported as 42.7 ± 8.5 µM, the “Decrease in ATP levels” value [4] is reported as 86.28% and the “Mitochondrial membrane potential” value [5] is reported as “disruption in the mitochondrial membrane potential”. The IC50 [6] was 102 ± 7.01 µM, the CC50 [2, 13] was greater than 394 µM and the “Plasma membrane permeability” value [8] was “show green fluorescence”. For the same compound, the “Intracellular ROS generation” value [9] was “increase of the intracellular ROS generation”, the “Chromatin condensation” value [10] was “condensation was observed” and the “Propidium iodide red fluorescence” value [10] was “late apoptosis phase”. For the same compound, the “S.I. ATCC 30808 (selectivity index CC50/IC50)” value [3] was greater than 10, the IC50 [3] was 39.2 ± 6.3 µM and the IC90 [3] was 117 ± 26.1 µM. The “Actin filaments” value [11] was “only low red fluorescence was detected”.

With `COC(=O)/C=C/OC(C#N)c1ccc(F)cc1` (centres unmarked) [QOET-79] the IC50 [1] was 54.3 ± 7.4 µM, the CC50 [2, 13] was greater than 425 µM and the “S.I. ATCC 30808 (selectivity index CC50/IC50)” value [3] was greater than 10. For the same compound, the IC50 [3] was 43.3 ± 5.69 µM and the IC90 [3] was 119 ± 26 µM.
